Measured values taken from patent publication US10681909B2, “Herbicidal triazoles” (FMC Corporation, priority 2014, dated 2020).

Key:
galium = assay: Test C preemergence; assay type: in vivo, Galium aparine; conditions: for Plant response rating (scale of 0 to 100 where 0 is no effect and 100 is complete control): Galium, preemergence; for Galium plant response rating (0 to 100): Preemergence, visual rating after 13 to 15 d
Description: (§1) Seeds of plant species selected from blackgrass (Alopecurus myosuroides), ryegrass, Italian (Italian ryegrass, Lolium multiflorum), wheat (winter wheat, Triticum aestivum), galium (catchweed bedstraw, Galium aparine), corn (Zea mays), crabgrass, large (large crabgrass, Digitaria sanguinalis), foxtail, giant, (giant foxtail, Setaria faberii), johnsongrass (Sorghum halepense), lambsquarters (Chenopodium album), morningglory (Ipomoea coccinea), nutsedge, yellow (yellow nutsedge, Cyperus esculentus), pigweed (Amaranthus retroflexus), ragweed (common ragweed, Ambrosia elatior), soybean (Glycine max), barnyardgrass (Echinochloa crus-galli), oilseed rape (Brassica napus), waterhemp (common waterhemp, Amaranthus rudis), and velvetleaf (Abutilon theophrasti) were planted into a blend of loam soil and sand and treated preemergence with test chemicals formulated in a non-phytotoxic solvent mixture which included a surfactant. At the same time, plants selected from these crop and weed species and also chickweed (common chickweed, Stellaria media), oat, wild (wild oat, Avena fatua), and kochia (Kochia scoparia), were planted in pots containing Sunshine Redi-Earth® planting medium comprising spaghnum peat moss, vermiculite, starter nutrients and dolomitic limestone and treated with postemergence applications of test chemicals formulated in the same manner. Plants ranged in height from 2 to 18 cm (1- to 4-leaf stage) for postemergence treatments. […] A dash (-) response means no test result.

foxtail, giant = assay: Test C preemergence; assay type: in vivo, Setaria faberii; conditions: for Plant response rating (scale of 0 to 100 where 0 is no effect and 100 is complete control): Foxtail, Giant, preemergence; for Foxtail, Giant plant response rating (0 to 100): Preemergence, visual rating after 13 to 15 d
Description: as §1

ragweed = assay: Test C preemergence; assay type: in vivo, Ambrosia elatior; conditions: for Ragweed plant response rating (0 to 100): Preemergence, visual rating after 13 to 15 d; for Plant response rating (scale of 0 to 100 where 0 is no effect and 100 is complete control): Ragweed, preemergence
Description: as §1

oilseed rape = assay: Test C preemergence; assay type: in vivo, Brassica napus; conditions: for Plant response rating (scale of 0 to 100 where 0 is no effect and 100 is complete control): Oilseed Rape, preemergence; for Oilseed Rape plant response rating (0 to 100): Preemergence, visual rating after 13 to 15 d
Description: as §1

kochia = assay: Test D preemergence; assay type: in vivo, Kochia scoparia; conditions: for Plant response rating (0 to 100), Kochia: 16 g ai/ha, 0 is no effect, 100 is complete control; for Plant response rating: Kochia: scale 0 to 100
Description: (§2) Seeds of plant species selected from bluegrass (annual bluegrass, Poa annua), blackgrass (Alopecurus myosuroides), canarygrass (Phalaris minor), chickweed (common chickweed, Stellaria media), galium (catchweed bedstraw, Galium aparine), bromegrass, down (downy bromegrass, Bromus tectorum), Russian thistle (Salsola kali), field poppy (Papaver rhoeas), field violet (Viola arvensis), foxtail, green (green foxtail, Setaria viridis), deadnettle (henbit deadnettle, Lamium amplexicaule), ryegrass, Ital. (Italian ryegrass, Lolium multiflorum), kochia (Kochia scoparia), lambsquarters (Chenopodium album), oilseed rape (Brassica napus), pigweed (Amaranthus retroflexus), chamomile (scentless chamomile, Matricaria inodora), speedwell (bird's-eye speedwell, Veronica persica), barley, spring (spring barley, Hordeum vulgare), wheat, spring (spring wheat, Triticum aestivum), buckwheat, wild (wild buckwheat, Polygonum convolvulus), wild mustard (Sinapis arvensis), oat, wild (wild oat, Avena fatua), radish, wild (wild radish, Raphanus raphanistrum), […]), barley, winter (winter barley, Hordeum vulgare), and wheat, winter (winter wheat, Triticum aestivum) were planted into a silt loam soil and treated preemergence with test chemicals formulated in a non-phytotoxic solvent mixture which included a surfactant. At the same time, these species were planted in pots containing Sunshine Redi-Earth® planting medium comprising spaghnum peat moss, vermiculite, starter nutrients and dolomitic limestone and treated with postemergence applications of the test chemicals formulated in the same manner. Plants ranged in height from 2 to 18 cm (1- to 4-leaf stage). Treated plants and controls were maintained in a controlled growth environment for 14 to 21 d after which time all species were compared to controls and visually evaluated. […] A dash (-) response means no test result.

barley, spring = assay: Test D preemergence; assay type: in vivo, Hordeum vulgare; conditions: for Plant response rating (0 to 100), Barley, Spring: 16 g ai/ha, 0 is no effect, 100 is complete control; for Plant response rating: Barley, Spring: scale 0 to 100
Description: as §2

barley, winter = assay: Test D preemergence; assay type: in vivo, Hordeum vulgare; conditions: for Plant response rating (0 to 100), Barley, Winter: 16 g ai/ha, 0 is no effect, 100 is complete control; for Plant response rating: Barley, Winter: scale 0 to 100
Description: as §2

wild mustard = assay: Test D preemergence; assay type: in vivo, Sinapis arvensis; conditions: for Plant response rating (0 to 100), Mustard, Wild: 16 g ai/ha, 0 is no effect, 100 is complete control; for Plant response rating: Mustard, Wild: scale 0 to 100
Description: as §2

ryegrass, Ital. = assay: Test D postemergence; assay type: in vivo, Lolium multiflorum; conditions: scale 0 to 100
Description: as §2

lambsquarters = assay: Test D postemergence; assay type: in vivo, Chenopodium album; conditions: scale 0 to 100
Description: as §2

buckwheat, wild = assay: Test D postemergence; assay type: in vivo, Polygonum convolvulus; conditions: scale 0 to 100
Description: as §2

windgrass = assay: Test D postemergence; assay type: in vivo, Apera spica-venti; conditions: scale 0 to 100
Description: as §2

CCOc1nc(-c2ccc(C(F)(F)F)cc2)nn1Cc1ccnc(C(F)(F)F)c1 [Compound 35, 4-[[5-ethoxy-3-[4-(trifluoromethyl)phenyl]-1H-1,2,4-triazole-1-yl]methyl]-2-(trifluoromethyl)pyridine]
Plant response rating (scale of 0 to 100 where 0 is no effect and 100 is complete control) (galium; 125 g ai/ha): 90
Plant response rating (scale of 0 to 100 where 0 is no effect and 100 is complete control) (galium; 250 g ai/ha): 90
Galium plant response rating (0 to 100) (galium; 31 g ai/ha): 50
Galium plant response rating (0 to 100) (galium; 62 g ai/ha): 80
Plant response rating (scale of 0 to 100 where 0 is no effect and 100 is complete control) (foxtail, giant; 125 g ai/ha): 100
Plant response rating (scale of 0 to 100 where 0 is no effect and 100 is complete control) (foxtail, giant; 250 g ai/ha): 100
Foxtail, Giant plant response rating (0 to 100) (foxtail, giant; 31 g ai/ha): 98
Foxtail, Giant plant response rating (0 to 100) (foxtail, giant; 62 g ai/ha): 100
Ragweed plant response rating (0 to 100) (ragweed; 31 g ai/ha): 60
Ragweed plant response rating (0 to 100) (ragweed; 62 g ai/ha): 75
Plant response rating (scale of 0 to 100 where 0 is no effect and 100 is complete control) (ragweed; 125 g ai/ha): 85
Plant response rating (scale of 0 to 100 where 0 is no effect and 100 is complete control) (ragweed; 250 g ai/ha): 90
Plant response rating (scale of 0 to 100 where 0 is no effect and 100 is complete control) (oilseed rape; 125 g ai/ha): 90
Plant response rating (scale of 0 to 100 where 0 is no effect and 100 is complete control) (oilseed rape; 250 g ai/ha): 90
Oilseed Rape plant response rating (0 to 100) (oilseed rape; 31 g ai/ha): 80
Oilseed Rape plant response rating (0 to 100) (oilseed rape; 62 g ai/ha): 75
Plant response rating (0 to 100), Kochia (kochia): 90
Plant response rating: Kochia (kochia; 62 g ai/ha): 90
Plant response rating: Kochia (kochia; 125 g ai/ha): 90
Plant response rating (0 to 100), Barley, Spring (barley, spring): 30
Plant response rating: Barley, Spring (barley, spring; 31 g ai/ha): 40
Plant response rating: Barley, Spring (barley, spring; 62 g ai/ha): 40
Plant response rating: Barley, Spring (barley, spring; 125 g ai/ha): 50
Plant response rating (0 to 100), Barley, Winter (barley, winter): 25
Plant response rating: Barley, Winter (barley, winter; 31 g ai/ha): 40
Plant response rating: Barley, Winter (barley, winter; 62 g ai/ha): 40
Plant response rating: Barley, Winter (barley, winter; 125 g ai/ha): 50
Plant response rating (0 to 100), Mustard, Wild (wild mustard): 70
Plant response rating: Mustard, Wild (wild mustard; 62 g ai/ha): 100
Plant response rating: Mustard, Wild (wild mustard; 125 g ai/ha): 100
Plant response rating: Ryegrass, Ital. (ryegrass, Ital.; 16 g ai/ha): 30
Plant response rating: Ryegrass, Ital. (ryegrass, Ital.; 31 g ai/ha): 60
Plant response rating: Ryegrass, Ital. (ryegrass, Ital.; 62 g ai/ha): 65
Plant response rating: Ryegrass, Ital. (ryegrass, Ital.; 125 g ai/ha): 75
Plant response rating: Lambsquarters (lambsquarters; 16 g ai/ha): 85
Plant response rating: Lambsquarters (lambsquarters; 31 g ai/ha): 95
Plant response rating: Lambsquarters (lambsquarters; 62 g ai/ha): 95
Plant response rating: Lambsquarters (lambsquarters; 125 g ai/ha): 100
Plant response rating: Buckwheat, Wild (buckwheat, wild; 16 g ai/ha): 65
Plant response rating: Buckwheat, Wild (buckwheat, wild; 31 g ai/ha): 70
Plant response rating: Buckwheat, Wild (buckwheat, wild; 62 g ai/ha): 70
Plant response rating: Buckwheat, Wild (buckwheat, wild; 125 g ai/ha): 95
Plant response rating: Windgrass (windgrass; 16 g ai/ha): 55
Plant response rating: Windgrass (windgrass; 31 g ai/ha): 75
Plant response rating: Windgrass (windgrass; 62 g ai/ha): 80
Plant response rating: Windgrass (windgrass; 125 g ai/ha): 90

Fc1ccc(-c2nc(OCC(F)(F)F)n(Cc3ccnc(C(F)(F)F)c3)n2)cc1 [Compound 30]
Plant response rating (scale of 0 to 100 where 0 is no effect and 100 is complete control) (galium; 125 g ai/ha): 95
Plant response rating (scale of 0 to 100 where 0 is no effect and 100 is complete control) (galium; 250 g ai/ha): 95
Galium plant response rating (0 to 100) (galium; 31 g ai/ha): 60
Galium plant response rating (0 to 100) (galium; 62 g ai/ha): 65
Plant response rating (scale of 0 to 100 where 0 is no effect and 100 is complete control) (foxtail, giant; 125 g ai/ha): 100
Plant response rating (scale of 0 to 100 where 0 is no effect and 100 is complete control) (foxtail, giant; 250 g ai/ha): 100
Foxtail, Giant plant response rating (0 to 100) (foxtail, giant; 31 g ai/ha): 98
Foxtail, Giant plant response rating (0 to 100) (foxtail, giant; 62 g ai/ha): 100
Ragweed plant response rating (0 to 100) (ragweed; 31 g ai/ha): 55
Ragweed plant response rating (0 to 100) (ragweed; 62 g ai/ha): 65
Plant response rating (scale of 0 to 100 where 0 is no effect and 100 is complete control) (ragweed; 125 g ai/ha): 80
Plant response rating (scale of 0 to 100 where 0 is no effect and 100 is complete control) (ragweed; 250 g ai/ha): 90
Plant response rating (scale of 0 to 100 where 0 is no effect and 100 is complete control) (oilseed rape; 125 g ai/ha): 100
Plant response rating (scale of 0 to 100 where 0 is no effect and 100 is complete control) (oilseed rape; 250 g ai/ha): 100
Oilseed Rape plant response rating (0 to 100) (oilseed rape; 31 g ai/ha): 80
Oilseed Rape plant response rating (0 to 100) (oilseed rape; 62 g ai/ha): 80
Plant response rating (0 to 100), Kochia (kochia): 85
Plant response rating: Kochia (kochia; 62 g ai/ha): 90
Plant response rating: Kochia (kochia; 125 g ai/ha): 95
Plant response rating (0 to 100), Barley, Spring (barley, spring): 30
Plant response rating: Barley, Spring (barley, spring; 31 g ai/ha): 40
Plant response rating: Barley, Spring (barley, spring; 62 g ai/ha): 35
Plant response rating: Barley, Spring (barley, spring; 125 g ai/ha): 45
Plant response rating (0 to 100), Barley, Winter (barley, winter): 20
Plant response rating: Barley, Winter (barley, winter; 31 g ai/ha): 25
Plant response rating: Barley, Winter (barley, winter; 62 g ai/ha): 30
Plant response rating: Barley, Winter (barley, winter; 125 g ai/ha): 40
Plant response rating (0 to 100), Mustard, Wild (wild mustard): 90
Plant response rating: Mustard, Wild (wild mustard; 62 g ai/ha): 100
Plant response rating: Mustard, Wild (wild mustard; 125 g ai/ha): 100
Plant response rating: Ryegrass, Ital. (ryegrass, Ital.; 16 g ai/ha): 35
Plant response rating: Ryegrass, Ital. (ryegrass, Ital.; 31 g ai/ha): 60
Plant response rating: Ryegrass, Ital. (ryegrass, Ital.; 62 g ai/ha): 65
Plant response rating: Ryegrass, Ital. (ryegrass, Ital.; 125 g ai/ha): 70
Plant response rating: Lambsquarters (lambsquarters; 16 g ai/ha): 85
Plant response rating: Lambsquarters (lambsquarters; 31 g ai/ha): 90
Plant response rating: Lambsquarters (lambsquarters; 62 g ai/ha): 95
Plant response rating: Lambsquarters (lambsquarters; 125 g ai/ha): 95
Plant response rating: Buckwheat, Wild (buckwheat, wild; 16 g ai/ha): 70
Plant response rating: Buckwheat, Wild (buckwheat, wild; 31 g ai/ha): 70
Plant response rating: Buckwheat, Wild (buckwheat, wild; 62 g ai/ha): 85
Plant response rating: Buckwheat, Wild (buckwheat, wild; 125 g ai/ha): 85
Plant response rating: Windgrass (windgrass; 16 g ai/ha): 45
Plant response rating: Windgrass (windgrass; 31 g ai/ha): 65
Plant response rating: Windgrass (windgrass; 62 g ai/ha): 75
Plant response rating: Windgrass (windgrass; 125 g ai/ha): 85
